Patent publication US20040110771A1, “7-(r)-aminotriazolopyrimidines, the production thereof and use of the same for combatting phytopathogenic fungi” (priority 2000, published 2004)

What was measured:
Format in all cases: in vivo
[1] = test system: Blumeria graminis forma specialis tritici; test: Activity against mildew of wheat caused by Blumeria graminis forma specialis tritici; details: wheat seedlings "Kanzler", dusted with spores 24 h after spraying, 7 days
Method: (§1) The active compounds were prepared separately or jointly as a 10% strength emulsion in a mixture of 70% by weight of cyclohexanone, 20% by weight of Nekanil® LN (Lutensol® AP6, wetting agent having emulsifying and dispersing action based on ethoxylated alkylphenols) and 10% by weight of Wettol® EM (nonionic emulsifier based on ethoxylated castor oil) and diluted with water to the desired concentration.
Leaves of potted wheat seedlings of the cultivar “Kanzler” were sprayed to runoff point with an aqueous preparation of active compound which had been prepared from a stock solution made of 10% of active compound, 85% of cyclohexanone and 5% of emulsifier and were dusted 24 hours after the spray coating had dried on with spores of mildew of wheat (Blumeria graminis forma specialis tritici). The test plants were then placed in a greenhouse at 20-24° C. and 60-90% relative atmospheric humidity. After 7 days, the extent of the mildew development was determined visually in % infection of the entire leaf area.

[2] = test system: Puccinia recondita; test: Curative activity against brown rust of wheat caused by Puccinia recondita; details: curative spray 24 h after inoculation, wheat seedlings "Kanzler", 7 days
Method: as §1
Leaves of potted wheat seedlings of the cultivar “Kanzler” were dusted with spores of brown rust (Puccinia recondita). The pots were then placed in a chamber with high atmospheric humidity (90 to 95%) at 20-22° C. for 24 hours. During this period, the spores germinated and the germinal tubes penetrated into the leaf tissue. The following day, the infected plants were sprayed to runoff point with an aqueous preparation of active compound which had been prepared from a stock solution made of 10% of active compound, 85% of cyclohexanone and 5% of emulsifier. After the spray coating had dried on, the test plants were cultivated in a greenhouse at 20-22° C. and 65-70% relative atmospheric humidity for 7 days. The extent of the rust fungus development on the leaves was then determined.

[3] = test system: Pyrenophora teres; test: Activity against net blotch of barley caused by Pyrenophora teres; details: barley seedlings "Igri", inoculated 24 h after spraying, 6 days
Method: as §1
Leaves of potted barley seedlings of the cultivar “Igri” were sprayed to runoff point with an aqueous preparation of active compound which had been prepared from a stock solution made of 10% of active compound, 85% of cyclohexanone and 5% of emulsifier and were inoculated 24 hours after the spray coating had dried on with an aqueous spore suspension of Pyrenophora teres, the net blotch pathogen. The test plants were then placed in a greenhouse at 20-24° C. and 95-100% relative atmospheric humidity. After 6 days, the extent of the development of the disease was determined visually in % infection of the entire leaf area.

[4] = test system: Septoria tritici; test: Protective activity against Septoria foliar blotch disease of wheat caused by Septoria tritici; details: wheat seedlings "Riband", inoculated 24 h after spraying, 2 weeks
Method: as §1
Leaves of potted wheat seedlings of the cultivar “Riband” were sprayed to runoff point with an aqueous preparation of active compound which had been prepared from a stock solution made of 10% of active compound, 85% of cyclohexanone and 5% of emulsifier. 24 hours after the spray coating had dried on, they were inoculated with an aqueous spore suspension of Septoria tritici. The suspension contained 2.0×10^6 spores/ml. The test plants were then placed in a greenhouse at 18-22° C. and a relative atmospheric humidity of close to 100%. After 2 weeks, the extent of the development of the disease was determined visually in % infection of the entire leaf area.

| Structure (SMILES) | % infection of the leaves after application of an aqueous preparation comprising . . . ppm of active compound ([1]; 16 ppm) [%] | % infection of the leaves after application of an aqueous preparation comprising . . . ppm of active compound ([1]; 63 ppm) [%] | % infection of the leaves after application of an aqueous preparation comprising . . . ppm of active compound ([1]; 250 ppm) [%] | % infection of the leaves after application of an aqueous preparation comprising . . . ppm of active compound ([2]; 16 ppm) [%] | % infection of the leaves after application of an aqueous preparation comprising . . . ppm of active compound ([2]; 63 ppm) [%] | % infection of the leaves after application of an aqueous preparation comprising . . . ppm of active compound ([2]; 250 ppm) [%] | % infection of the leaves after application of an aqueous preparation comprising . . . ppm of active compound ([3]; 16 ppm) [%] | % infection of the leaves after application of an aqueous preparation comprising . . . ppm of active compound ([4]; 16 ppm) [%] | % infection of the leaves after application of an aqueous preparation comprising . . . ppm of active compound ([4]; 63 ppm) [%] | % infection of the leaves after application of an aqueous preparation comprising . . . ppm of active compound ([4]; 250 ppm) [%] | % infection of the leaves after application of an aqueous preparation comprising . . . ppm of active compound ([3]; 63 ppm) [%] | % infection of the leaves after application of an aqueous preparation comprising . . . ppm of active compound ([3]; 250 ppm) [%] |
| --- | --- | --- | --- | --- | --- | --- | --- | --- | --- | --- | --- | --- |
| Cc1cc(F)ccc1-c1c(Cl)nc2ncnn2c1NC(C)C(C)C (stereo not shown) [I.-23] | 15 | 5 | 3 | 3 | 0 | 0 | 0 |  |  |  |  |  |
| CC(C)C(C)Nc1c(-c2ccccc2C(F)(F)F)c(Cl)nc2ncnn12 (stereo not shown) [I.-25] |  |  |  |  |  |  |  | 0 | 0 | 0 |  |  |
| Cc1cccc(F)c1-c1c(Cl)nc2ncnn2c1NC(C)C(C)C (single isomer, unassigned) [I.-11a] | 7 | 7 | 5 | 80 | 5 | 5 | 5 |  |  |  | 0 | 0 |
| CC[C@H](C)Nc1c(-c2c(F)cc(F)cc2F)c(Cl)nc2ncnn12 [comparison (S)-amine of I.-13] | 100 | 60 |  | 60 | 3 |  | 60 |  |  |  |  |  |
| COc1cc(F)c(-c2c(Cl)nc3ncnn3c2N[C@H](C)C(C)(C)C)c(F)c1 [I.-18] |  |  |  |  |  |  |  |  |  | 30 |  |  |
| C[C@@H](Nc1c(-c2ccccc2Cl)c(Cl)nc2ncnn12)C(C)(C)C (single isomer, unassigned) [I.-44b] |  |  |  |  |  |  |  | 30 | 10 | 10 |  |  |
| Cc1cc(F)ccc1-c1c(Cl)nc2ncnn2c1N[C@@H](C)C(C)C [comparison (S)-amine of I.-23] | 60 | 60 | 40 | 100 | 100 | 100 | 60 |  |  |  |  |  |
| CC(Nc1c(-c2ccccc2C(F)(F)F)c(Cl)nc2ncnn12)C(C)(C)C [comparison (S)-amine of I.-26] |  |  |  |  |  |  |  | 100 | 100 | 100 |  |  |
| COc1cc(F)c(-c2c(Cl)nc3ncnn3c2N[C@@H](C)C(C)(C)C)c(F)c1 [comparison (S)-amine of I.-18] |  |  |  |  |  |  |  |  |  | 80 |  |  |
| Cc1cccc(F)c1-c1c(Cl)nc2ncnn2c1NC(C)C(C)C [comparison (S)-amine of I.-11b] |  | 60 | 60 |  | 100 | 100 |  |  |  |  | 100 | 100 |
| CC(Nc1c(-c2ccccc2C(F)(F)F)c(Cl)nc2ncnn12)C(C)(C)C (stereo not shown) [I.-26] |  |  |  |  |  |  |  | 3 | 0 | 0 |  |  |
| CC(Nc1c(-c2ccccc2Cl)c(Cl)nc2ncnn12)C(C)(C)C [comparison (S)-amine of I.-44b] |  |  |  |  |  |  |  | 80 | 80 | 80 |  |  |
| CC(C)[C@H](C)Nc1c(-c2ccccc2C(F)(F)F)c(Cl)nc2ncnn12 [comparison (S)-amine of I.-25] |  |  |  |  |  |  |  | 100 | 100 | 100 |  |  |
| CC[C@H](C)Nc1c(-c2c(C)cccc2F)c(Cl)nc2ncnn12 [comparison (S)-amine of I.-10] |  | 100 | 100 | 100 | 100 | 100 |  |  |  |  | 100 | 40 |
| Cc1cccc(F)c1-c1c(Cl)nc2ncnn2c1N[C@H](C)C(C)C (single isomer, unassigned) [I.-11b] |  | 30 | 30 |  | 20 | 5 |  |  |  |  | 15 | 0 |
